Source: the NIST ThermoML archive (doi:10.1021/je800159w)

Experiments:
[1] = refractive index (Na D-line) (dimensionless); xn = mol fraction of the nth substance listed; details: 298.15 K, 101 kPa, Liquid, Standard Abbe refractometry
[2] = xn = mol fraction of the nth substance listed; details: 101 kPa, Liquid
[3] = refractive index (Na D-line) (dimensionless); details: 101.33 kPa, Liquid, Standard Abbe refractometry
[4] = Liquid

CCO [ethanol] + CCOS(=O)(=O)[O-].CC[n+]1cccc(C)c1
Details	refractive index
[1], x1 = 1	1.36023

[2], x1 = 1
Details	mass density [kg/m3]	viscosity [mPa·s]
298.15 K	785.46	1.082
313.15 K	772	0.827
328.15 K	758.55	0.641

CCOS(=O)(=O)[O-].CC[n+]1cccc(C)c1 [1-ethyl-3-methylpyridinium ethylsulfate] + O
[1]
Details	refractive index
x2 = 0.0526	1.50583
x2 = 0.1412	1.50427
x2 = 0.2445	1.50193
x2 = 0.3233	1.49986
x2 = 0.4174	1.49685
x2 = 0.4972	1.49329
x2 = 0.588	1.48806
x2 = 0.6975	1.47838
x2 = 0.7928	1.46398
x2 = 0.9005	1.42959
x2 = 0.9484	1.39796

[2]
Details	mass density, 298.15 K [kg/m3]	mass density, 313.15 K [kg/m3]	mass density, 328.15 K [kg/m3]	viscosity, 298.15 K [mPa·s]	viscosity, 313.15 K [mPa·s]	viscosity, 328.15 K [mPa·s]
x2 = 0.0526	1221.69	1211.82	1202.02	127.6	60.5	34.93
x2 = 0.1412	1220.12	1210.22	1200.35	102.1	50.28	29.83
x2 = 0.2445	1217.8	1207.83	1198.02	77.9	39.91	23.49
x2 = 0.3233	1215.58	1205.62	1195.72	62.3	32.92	19.76
x2 = 0.4174	1212.21	1202.21	1192.23	46.87	24.86	15.51
x2 = 0.4972	1208.39	1198.31	1188.24	36.11	20.36	12.78
x2 = 0.588	1202.53	1192.32	1182.14	26.83	15.52	9.894
x2 = 0.6975	1191.35	1180.92	1170.42	17.72	10.5	6.847
x2 = 0.7928	1174.05	1163.41	1152.61	11.18	6.778	4.508
x2 = 0.9005	1129.44	1119.24	1108.66	4.927	3.161	2.197
x2 = 0.9484	1086.2	1077.5	1068	2.717	1.818	1.315

CCOS(=O)(=O)[O-].CC[n+]1cccc(C)c1 [1-ethyl-3-methylpyridinium ethylsulfate]
[3]
Details	refractive index
298.15 K	1.50666
303.15 K	1.50525
308.15 K	1.50386
313.15 K	1.50246
318.15 K	1.50106
323.15 K	1.49965
328.15 K	1.49825
333.15 K	1.49683
338.15 K	1.4954
343.15 K	1.49361

[4], 101.33 kPa
Details	mass density [kg/m3]	viscosity [mPa·s]
298.15 K	1222.26	161.4
303.15 K	1219.02	123.6
308.15 K	1215.78	96.9
313.15 K	1212.54	77.1
318.15 K	1209.39	62.2
323.15 K	1206.13	50.55
328.15 K	1202.86	42.32
333.15 K	1199.63	35.52
338.15 K	1196.43	30.11
343.15 K	1193.25	25.69

CCOS(=O)(=O)[O-].CC[n+]1cccc(C)c1 [1-ethyl-3-methylpyridinium ethylsulfate] + CCO
[1]
Details	refractive index
x2 = 0.0609	1.50392
x2 = 0.1108	1.50181
x2 = 0.2066	1.4973
x2 = 0.3083	1.49126
x2 = 0.4004	1.48469
x2 = 0.4998	1.476
x2 = 0.6034	1.46448
x2 = 0.7034	1.45003
x2 = 0.8452	1.41977
x2 = 0.9389	1.38864

[2]
Details	mass density, 298.15 K [kg/m3]	mass density, 313.15 K [kg/m3]	mass density, 328.15 K [kg/m3]	viscosity, 298.15 K [mPa·s]	viscosity, 313.15 K [mPa·s]	viscosity, 328.15 K [mPa·s]
x2 = 0.0609	1214.93	1205.03	1195.2	116.7	55.2	31.2
x2 = 0.1108	1208.33	1198.38	1188.52	96.9	48.57	28.12
x2 = 0.2066	1193.93	1183.86	1173.91	68	36.25	21.86
x2 = 0.3083	1175.71	1165.53	1155.46	45.35	25.91	16.41
x2 = 0.4004	1155.73	1145.51	1135.36	31.11	18.88	12.52
x2 = 0.4998	1129.53	1119.07	1108.74	20.04	12.92	8.971
x2 = 0.6034	1094.96	1084.3	1073.73	12.17	8.317	6.023
x2 = 0.7034	1051.68	1040.72	1029.83	7.452	5.332	3.99
x2 = 0.8452	961.67	950.09	938.48	3.322	2.502	1.943
x2 = 0.9389	870.77	858.52	846.1	1.812	1.388	1.086

CCO [ethanol]
Details	refractive index
[3], 298.15 K	1.36023

[4], 101 kPa
Details	mass density [kg/m3]	viscosity [mPa·s]
298.15 K	785.46	1.082
313.15 K	772	0.827
328.15 K	758.55	0.641
